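Dose response: 5 concentrations. Exposure: 48 h. Format: 96-well plates. Endpoint: linear interpolation; highest concentration if not reached. GI50 = concentration required for 50% inhibition of growth. TGI: total growth inhibition.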 Some results are limits rather than exact numbers.

Test systems include HCT-116 colon; HL-60(TB) leukemia; KM12 colon; RPMI-8226 leukemia; SF-295 CNS; SK-MEL-28 melanoma; SK-OV-3 ovarian; SN12C renal; SNB-75 CNS; TK-10 renal.
What all share (assay): NCI tumour cell line growth inhibition, 48 h

As for `C(=C\c1nc2ccccc2s1)/c1ccc(N2CCOCC2)s1`, the GI50 is 59.9 µM in the test on HCT-116 colon; above 100 µM with HL-60(TB) leukemia; 93.8 µM with KM12 colon; 25.6 µM with RPMI-8226 leukemia; 24.2 µM with SF-295 CNS; above 100 µM in the test with SK-MEL-28 melanoma. Besides, the GI50 with SK-OV-3 ovarian is 90.7 µM; in the test on SN12C renal it was 43.3 µM; in the test on SNB-75 CNS it was 31.6 µM; with TK-10 renal, 48.4 µM. Besides, the TGI is above 100 µM in the test with HCT-116 colon; above 100 µM with HL-60(TB) leukemia; above 100 µM in the test on KM12 colon; above 100 µM in the test with RPMI-8226 leukemia; 95.4 µM in the test with SF-295 CNS; above 100 µM in the test on SK-MEL-28 melanoma. Also, the TGI with SK-OV-3 ovarian, in the test with SN12C renal, with SNB-75 CNS and in the test with TK-10 renal was above 100 µM in each case.
On to `CNC(=O)OCc1cc2ccncc2c2c1[nH]c1ccccc12`, for which the TGI in the test with HCT-116 colon, in the test on HL-60(TB) leukemia, in the test with KM12 colon, in the test on RPMI-8226 leukemia, with SF-295 CNS and in the test on SK-MEL-28 melanoma was above 100 µM each time. The TGI was above 100 µM in the test on SN12C renal, above 80.3 µM with SNB-75 CNS and above 100 µM in the test on TK-10 renal.
Regarding `CC(C)NCCCCCNc1cc(O)cc2cccnc12`, the GI50 in the test with HCT-116 colon was 67.9 µM; with HL-60(TB) leukemia it was 0.751 µM; in the test with KM12 colon it was above 100 µM; in the test with RPMI-8226 leukemia, above 23.1 µM; in the test on SF-295 CNS it was above 100 µM; in the test with SK-MEL-28 melanoma, above 100 µM. Moreover, the GI50 with SK-OV-3 ovarian is above 100 µM; in the test on SN12C renal, above 100 µM; in the test on SNB-75 CNS it was above 58.2 µM; with TK-10 renal, above 100 µM. Moreover, the TGI is above 100 µM in the test on HCT-116 colon; 4.36 µM in the test with HL-60(TB) leukemia; above 100 µM with KM12 colon; above 100 µM in the test on RPMI-8226 leukemia; above 100 µM with SF-295 CNS; above 100 µM in the test with SK-MEL-28 melanoma. Further, the TGI with SK-OV-3 ovarian, with SN12C renal, with SNB-75 CNS and in the test with TK-10 renal was above 100 µM throughout.
Consider `CS(=O)(=O)c1ccc(-c2[nH]c3ccc(F)cc3c2/C=N/NC(N)=S)cc1`, for which the GI50 in the test with HCT-116 colon was 0.437 µM; in the test with HL-60(TB) leukemia, 0.396 µM; in the test on KM12 colon it was 0.73 µM; with RPMI-8226 leukemia, 0.475 µM; in the test on SF-295 CNS, 0.899 µM; in the test on SK-MEL-28 melanoma, 12.3 µM. The GI50 in the test with SK-OV-3 ovarian is 1.86 µM; with SN12C renal, 3.14 µM; in the test on SNB-75 CNS it was 1.85 µM; with TK-10 renal, 5.88 µM. Further, the TGI was above 100 µM in the test on HCT-116 colon; 5.05 µM in the test on HL-60(TB) leukemia; 28.8 µM in the test on KM12 colon; 6.64 µM in the test with RPMI-8226 leukemia; 13.1 µM with SF-295 CNS; above 100 µM with SK-MEL-28 melanoma. The TGI in the test with SK-OV-3 ovarian, with SN12C renal, in the test on SNB-75 CNS and with TK-10 renal was above 100 µM in each case.
For the molecule `CCCC(=O)Nc1ncnc2c1ncn2C1OC2COP(=O)(O)OC2C1OC(=O)CCC` (stereo unspecified), the GI50 in the test on HCT-116 colon, in the test on KM12 colon, with SF-295 CNS, with SK-MEL-28 melanoma, in the test with SK-OV-3 ovarian and in the test on SN12C renal was above 1000 µM in each case. In addition, in the test on SNB-75 CNS, the GI50 is above 1000 µM. The TGI with HCT-116 colon, in the test on HL-60(TB) leukemia, with KM12 colon, in the test with RPMI-8226 leukemia, in the test with SF-295 CNS and with SK-MEL-28 melanoma was above 1000 µM in each case. Further, the TGI with SK-OV-3 ovarian, in the test on SN12C renal, in the test with SNB-75 CNS and in the test with TK-10 renal was above 1000 µM each time.
For the molecule `O=c1cc(-c2ccccc2)nc2cc(-c3ccco3)[nH]n12`, the GI50 is 15.7 µM in the test on HCT-116 colon; 11.1 µM with HL-60(TB) leukemia; 3.26 µM in the test with KM12 colon; 13.7 µM in the test with RPMI-8226 leukemia; 3.64 µM in the test with SF-295 CNS; 8.78 µM in the test with SK-MEL-28 melanoma. Besides, the GI50 in the test with SK-OV-3 ovarian was 14.2 µM; in the test on SN12C renal, 18.5 µM; with SNB-75 CNS it was 12.5 µM; in the test on TK-10 renal it was 19.8 µM. For the same molecule, the TGI is above 100 µM with HCT-116 colon; above 100 µM with HL-60(TB) leukemia; 50.6 µM in the test on KM12 colon; 89.9 µM in the test on RPMI-8226 leukemia; 25.6 µM in the test with SF-295 CNS; above 100 µM in the test with SK-MEL-28 melanoma. Moreover, the TGI in the test on SK-OV-3 ovarian is 82.8 µM; with SN12C renal, above 100 µM; with SNB-75 CNS, above 100 µM; with TK-10 renal, 96.9 µM.
Take `O=[N+]([O-])c1ccc(NN=C2c3ccccc3Cc3ccccc32)c([N+](=O)[O-])c1`: the TGI was above 100 µM with HCT-116 colon; above 30 µM with HL-60(TB) leukemia; 79.9 µM in the test with KM12 colon; above 100 µM in the test on RPMI-8226 leukemia; above 100 µM in the test on SF-295 CNS; above 100 µM in the test on SK-MEL-28 melanoma. In addition, the TGI is above 100 µM with SK-OV-3 ovarian, above 100 µM with SN12C renal, 75.1 µM in the test on SNB-75 CNS and above 100 µM with TK-10 renal.
On to `O=C(Nc1ccc(Cl)cc1F)c1cc(Cl)ccc1O`, for which the GI50 in the test on HCT-116 colon was 0.431 µM; in the test with HL-60(TB) leukemia it was 0.389 µM; in the test on KM12 colon, 1.51 µM; in the test on RPMI-8226 leukemia, 0.302 µM; with SF-295 CNS, 0.99 µM; with SK-MEL-28 melanoma, 0.364 µM. The GI50 in the test on SK-OV-3 ovarian is 0.576 µM; in the test with SN12C renal, 0.345 µM; in the test on SNB-75 CNS, 0.456 µM; in the test on TK-10 renal, 1.31 µM. Also, the TGI came to 2.24 µM with HCT-116 colon; 1.96 µM in the test with HL-60(TB) leukemia; 4.28 µM with KM12 colon; 1.75 µM in the test with RPMI-8226 leukemia; 2.67 µM in the test on SF-295 CNS; 1.84 µM in the test on SK-MEL-28 melanoma. In addition, the TGI in the test with SK-OV-3 ovarian was 8.6 µM; in the test on SN12C renal it was 3.95 µM; in the test with SNB-75 CNS, 3.77 µM; in the test on TK-10 renal, above 31.2 µM.
In the case of `Cc1ccc2nc(CC(=O)c3ccc4ccccc4c3)c(=O)[nH]c2c1`, the TGI in the test with HCT-116 colon, in the test on HL-60(TB) leukemia, in the test with KM12 colon, in the test with RPMI-8226 leukemia, in the test on SF-295 CNS and in the test with SK-MEL-28 melanoma was above 100 µM in each case. Moreover, the TGI in the test with SK-OV-3 ovarian, in the test on SN12C renal, in the test with SNB-75 CNS and in the test with TK-10 renal was above 100 µM each time.

(Values after PubChem BioAssay (NCI).)
